Assays:
[1] = tested on: rhNBD1 and its double mutants F400A/E403A and P439A/P477A; test: Native polyacrylamide electrophoresis (BN-PAGE) of biotinylated peptide with rhNBD1; format: binding, human
Protocol: Peptide-protein interactions were further studied exploiting a different biochemical strategy: recombinant NBD1, both wild type and/or its mutants, were incubated at 4° C. for 30′ in 40 mM Tris pH 7.5 in the presence of the biotinylated P31-43 peptide unless otherwise indicated and resolved in native conditions by BN-PAGE (Novex, Invitrogen). The complexes were then blotted onto PVDF membrane in accordance with the manufacturer's instructions and the interacting partners were detected with streptavidin-HRP antibody (PerkinElmer).
e-f, Blue native PAGE western blotting of P31-43 and P57-68 biotinylated peptides in the presence of rhNBD1 (e), and of WT and double NBD1 mutants in the presence of biotinylated P31-43 (0. g, SPR analysis of 4QA peptide on rhNBD1 covalently bound to CMS sensor chip. h-i, treatment of Caco-2 cells with P31-43 or P31-43 modified in different Q or P positions. (h) Assessment in Ussing chambers of CFTR-dependent Cl^− secretion measured by forskolin-induced (Fsk) increase of the chloride current (Isc (μA/cm^2); quantification of the peak CFTR Inhibitor 172 (CFTRinh172)-sensitive Isc (ΔIsc). (i) Assessment of iodide efflux by SPQ fluorescent probe upon stimulation with forskolin (Fsk) expressed as percentage of CFTR function in the presence or absence of peptide challenge. […]

[2] = tested on: non-obese diabetic (NOD) female mice; test: NOD mice orally challenged with gliadin; format: in vivo, mouse
Excerpt: In the second model of gluten sensitivity, the Applicant resorted to non-obese diabetic (NOD) female mice, which spontaneously develop autoimmune type-1 diabetes (Maurano, F., et al. 2005).
BALB/c mice (background BALB/cAnNCrl) were purchased from Charles River (Varese, Italy). Three generation gluten-free diet (Mucedola srl, Milan), male and female, were challenged with gliadin for 4 weeks. […]
Chambers for mounting either transwell cell cultures or mouse tissue biopsies were obtained from Physiologic Instruments (model P2300, San Diego, Calif., USA). […] Shortcircuit current (expressed as Isc (μA/cm2)) and resistance were acquired or calculated using the VCC600 transepithelial clamp from Physiologic Instruments and the Acquire & Analyze 2.3 software for data acquisition (Physiologic Instruments), as previously described Tosco A, et al. 2016; Romani, L. et al. 2017).
ELISA analysis was performed on tissue samples using standard ELISA kits (R&D Systems) for IL-15, IL-17A, INFγ IL21, IL10, TGF-β. […] Samples were read in triplicate at 450 nm in a Microplate Reader (BioRad, Milan, Italy) using Microplate Manager 5.2.1 software. Values were normalized to protein concentration evaluated by Bradford analysis. […]

| Compound | binding to native rhNBD1 [1] | binding to rhNBD1 double mutants F400A/E403A and P439A/P477A [1] | immunoprotective effects (IL-15, IL-17A, IFN-γ protein) ([2]; NOD mice challenged with gliadin after diabetes onset) | effect on gliadin-induced reduction in CFTR function ([2]; NOD mice, VX-770 i.p.) |
| --- | --- | --- | --- | --- |
| α-gliadin peptide LGQQQPFPPQQPY (SEQ ID 1), induces an enterocyte stress response (P31-43 sequence of alpha-gliadin) | bound to rhNBD1 | attenuated for both rhNBD1 mutants | – | – |
| CC(C)(C)c1cc(C(C)(C)C)c(NC(=O)c2c[nH]c3ccccc3c2=O)cc1O [VX-770, N-(2,4-di-tert-butyl-5-hydroxyphenyl)-4-oxo-1,4-dihydroquinoline-3-carboxamide] | – | – | immunoprotective effects of VX-770 were confirmed | inhibitable |
